Laboratory results taken from ChEMBL document CHEMBL5033996, “Design, Synthesis, and Bioactivity Evaluation of Dual-Target Inhibitors of Tubulin and Src Kinase Guided by Crystal Structure” (J Med Chem, 2021).
Activity calls are given as the source filed them. No cut-off for these calls is given here.

Legend:
K562 = experiment: Antiproliferative activity against human K562 cells assessed as inhibition of cell proliferation measured after 72 hrs by MTT assay; type: functional, cell-based; conditions: K562, 72 h
SK-OV-3 [1] = experiment: Antiproliferative activity against human SK-OV-3 cells assessed as inhibition of cell proliferation measured after 72 hrs by MTT assay; type: functional, cell-based; conditions: SK-OV-3, 72 h
Ramos = experiment: Antiproliferative activity against human Ramos cells assessed as inhibition of cell proliferation measured after 72 hrs by MTT assay; type: functional, cell-based
SK-OV-3 [2] = experiment: Induction of mitotic block in human SK-OV-3 cells at 10 to 30 nM in absence of colchicine measured immediately by flow cytometry analysis; type: functional, cell-based; conditions: dose 10-30 nM
[3] = Antitumor activity against human SK-OV-3 cells xenografted in nude mouse assessed as tumor growth inhibition at 10 mg/kg, po measured every 3 days for 1 month by vernier caliper analysis relative to control; type: functional; conditions: SK-OV-3, po, 730 h, time 1 months, read-out: TGI
[4] = Half life in human liver microsomes; type: ADME, Microsome
[5] = Intrinsic clearance in human liver microsomes; type: ADME, Microsome
Tubulin = experiment: Binding affinity to tubulin (unknown origin) assessed as dissociation constant by tryptophan based binding assay; type: protein-complex assay, Homo sapiens
[6] = AUC (0 to t) in Sprague-Dawley rat at 5 mg/kg, po measured up to 24 hrs by LC/MS/MS analysis; type: ADME, organism-based; design: route oral, dose 5 mg/kg, time <=24; conditions: in vivo
[7] = Half life in Sprague-Dawley rat at 5 mg/kg, po measured up to 24 hrs by LC/MS/MS analysis; type: ADME, organism-based; conditions: in vivo
[8] = Tmax in Sprague-Dawley rat at 5 mg/kg, po measured up to 24 hrs by LC/MS/MS analysis; type: ADME, organism-based; conditions: in vivo
[9] = Cmax in Sprague-Dawley rat at 5 mg/kg, po measured up to 24 hrs by LC/MS/MS analysis; type: ADME, organism-based; design: route oral, dose 5 mg/kg, time <=24; conditions: in vivo
[10] = Clearance in Sprague-Dawley rat at 5 mg/kg, po measured up to 24 hrs by LC/MS/MS analysis; type: ADME, organism-based; conditions: in vivo
[11] = Oral bioavailability in Sprague-Dawley rat at 5 mg/kg measured up to 24 hrs by LC/MS/MS analysis; type: ADME, organism-based; conditions: in vivo
[12] = Antitumor activity against mouse C26 cells xenografted in BALB/c mouse assessed as tumor growth inhibition at 10 mg/kg, po measured every 2 days for 10 days by vernier caliper analysis relative to control; type: functional; conditions: 240 h, time 10 day, read-out: TGI
[13] = Antitumor activity against human SK-OV-3 cells xenografted in nude mouse assessed as tumor growth inhibition at 5 mg/kg, po measured every 3 days for 1 month by vernier caliper analysis relative to control; type: functional; conditions: SK-OV-3, po, 730 h, time 1 months, read-out: TGI
[14] = Toxicity in mouse xenografted with human SK-OV-3 cells assessed as effect on body weight at 10 mg/kg, po administered for 30 days; type: organism-based; conditions: in vivo, 720 h, time 30 day
[15] = Toxicity in mouse xenografted with human SK-OV-3 cells assessed as effect on body weight at 5 mg/kg, po administered for 30 days; type: organism-based; conditions: in vivo, 720 h, time 30 day
Tubulin (Homo sapiens) = Tubulin (Homo sapiens) (UniProt P68371+Q9H4B7+P0DPH7+P68366+Q13509+Q71U36+P04350+Q3ZCM7+P07437+P68363+Q9BQE3+Q6PEY2+Q13885+Q9BVA1+Q9BUF5); experiment: Inhibition of tubulin polymerization in human SK-OV-3 cells at 5 uM incubated for 16 hrs by fluorescence microscopic analysis; type: cell-based
SK-OV-3 [16] = experiment: Induction of cell cycle arrest in human SK-OV-3 cells assessed as accumulation of cells at G0/G1 phase at 1 nM incubated for 24 hrs by PI staining based flow cytometry analysis (Rvb= 49.60%); type: functional
SK-OV-3 [17] = experiment: Induction of cell cycle arrest in human SK-OV-3 cells assessed as accumulation of cells at G2/M phase at 1 nM incubated for 24 hrs by PI staining based flow cytometry analysis (reference value: 28.94%); type: functional
SK-OV-3 [18] = experiment: Induction of cell cycle arrest in human SK-OV-3 cells assessed as accumulation of cells at S phase at 1 nM incubated for 24 hrs by PI staining based flow cytometry analysis (reference value: 21.4 %); type: functional
SK-OV-3 [19] = experiment: Induction of cell cycle arrest in human SK-OV-3 cells assessed as accumulation of cells at G0/G1 phase at 5 nM incubated for 24 hrs by PI staining based flow cytometry analysis (reference value: 49.60 %); type: functional
SK-OV-3 [20] = experiment: Induction of cell cycle arrest in human SK-OV-3 cells assessed as accumulation od cells at G2/M phase at 5 nM incubated for 24 hrs by PI staining based flow cytometry analysis (reference value: 28.94%); type: functional
SK-OV-3 [21] = experiment: Induction of cell cycle arrest in human SK-OV-3 cells assessed as accumulation of cells at S phase at 5 nM incubated for 24 hrs by PI staining based flow cytometry analysis (reference value: 21.4 %); type: functional
SK-OV-3 [22] = experiment: Induction of cell cycle arrest in human SK-OV-3 cells assessed as accumulation of cells at G0/G1 phase at 10 nM incubated for 24 hrs by PI staining based flow cytometry analysis (reference value: 49.60 %); type: functional
SK-OV-3 [23] = experiment: Induction of cell cycle arrest in human SK-OV-3 cells assessed as accumulation of cells at G2/M phase at 10 nM incubated for 24 hrs by PI staining based flow cytometry analysis (reference value: 28.94%); type: functional
SK-OV-3 [24] = experiment: Induction of cell cycle arrest in human SK-OV-3 cells assessed as accumulation of cells at S phase at 10 nM incubated for 24 hrs by PI staining based flow cytometry analysis (reference value: 21.4 %); type: functional
SK-OV-3 [25] = experiment: Induction of mitotic block in human SK-OV-3 cells at 10 to 30 nM in presence of colchicine measured immediately by flow cytometry analysis; type: functional, cell-based; conditions: dose 10-30 nM
SK-OV-3 [26] = experiment: Induction of mitotic block in human SK-OV-3 cells at 300 nM measured after 10 hrs by flow cytometry analysis; type: functional, cell-based
[27] = biological target: Proto-oncogene tyrosine-protein kinase Src (Homo sapiens) (UniProt P12931); experiment: Inhibition of Src kinase phosphorylation at Tyr416/419 residue in human SK-OV-3 cells incubated for 24 hrs by Western blot analysis; type: cell-based
[28] = biological target: Focal adhesion kinase 1 (Homo sapiens) (UniProt Q05397); experiment: Inhibition of FAK phosphorylation at […] residue in human SK-OV-3 cells incubated for 24 hrs by Western blot analysis; type: cell-based
[29] = Toxicity in C57 mouse at 40 mg/kg, po administered twice daily; type: organism-based; conditions: in vivo

Chain of Proto-oncogene tyrosine-protein kinase Src (Homo sapiens) (P12931 2-536 limits assumed): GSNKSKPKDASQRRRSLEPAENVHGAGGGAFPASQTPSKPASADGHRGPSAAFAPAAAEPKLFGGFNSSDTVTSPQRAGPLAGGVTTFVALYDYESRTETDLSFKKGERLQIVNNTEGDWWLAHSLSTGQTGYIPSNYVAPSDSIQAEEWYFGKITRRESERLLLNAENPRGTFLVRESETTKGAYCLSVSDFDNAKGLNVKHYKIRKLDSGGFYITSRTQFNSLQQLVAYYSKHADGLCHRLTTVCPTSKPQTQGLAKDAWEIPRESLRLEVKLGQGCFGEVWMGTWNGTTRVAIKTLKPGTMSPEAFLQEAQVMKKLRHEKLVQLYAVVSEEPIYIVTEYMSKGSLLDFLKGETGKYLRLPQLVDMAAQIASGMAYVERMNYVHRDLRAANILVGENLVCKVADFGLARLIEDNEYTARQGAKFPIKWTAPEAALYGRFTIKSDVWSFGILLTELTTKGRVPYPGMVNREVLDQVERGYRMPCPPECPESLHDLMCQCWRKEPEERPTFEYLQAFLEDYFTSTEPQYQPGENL
Chain of Focal adhesion kinase 1 (Homo sapiens) (Q05397 2-1052 limits assumed): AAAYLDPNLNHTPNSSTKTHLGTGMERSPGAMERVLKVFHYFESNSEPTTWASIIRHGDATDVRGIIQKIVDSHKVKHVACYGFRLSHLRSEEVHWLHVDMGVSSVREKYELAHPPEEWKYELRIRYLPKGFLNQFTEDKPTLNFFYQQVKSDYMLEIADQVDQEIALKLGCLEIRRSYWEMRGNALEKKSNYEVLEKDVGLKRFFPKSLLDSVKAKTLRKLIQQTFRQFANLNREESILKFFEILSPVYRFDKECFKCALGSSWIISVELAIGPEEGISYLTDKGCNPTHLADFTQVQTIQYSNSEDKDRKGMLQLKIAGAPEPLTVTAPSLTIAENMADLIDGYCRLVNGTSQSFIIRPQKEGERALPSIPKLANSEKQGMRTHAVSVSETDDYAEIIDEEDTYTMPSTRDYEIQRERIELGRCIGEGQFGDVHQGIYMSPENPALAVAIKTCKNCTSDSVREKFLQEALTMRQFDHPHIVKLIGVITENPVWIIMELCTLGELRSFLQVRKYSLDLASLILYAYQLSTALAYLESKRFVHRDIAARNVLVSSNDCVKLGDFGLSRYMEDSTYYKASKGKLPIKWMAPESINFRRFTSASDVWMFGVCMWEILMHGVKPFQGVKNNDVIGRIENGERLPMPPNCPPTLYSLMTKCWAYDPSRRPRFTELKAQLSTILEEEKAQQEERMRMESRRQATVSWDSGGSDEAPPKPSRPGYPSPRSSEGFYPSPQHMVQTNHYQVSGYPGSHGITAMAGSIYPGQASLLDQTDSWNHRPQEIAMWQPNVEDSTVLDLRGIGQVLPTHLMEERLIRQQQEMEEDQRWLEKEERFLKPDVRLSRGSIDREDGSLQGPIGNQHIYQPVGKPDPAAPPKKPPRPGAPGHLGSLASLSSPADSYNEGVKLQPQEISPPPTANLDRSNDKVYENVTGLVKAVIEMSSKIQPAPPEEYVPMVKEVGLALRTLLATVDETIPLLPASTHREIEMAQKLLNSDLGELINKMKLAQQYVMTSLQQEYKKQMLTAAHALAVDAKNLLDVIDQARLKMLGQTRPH

`O=C(Cc1ccc(-c2ccc(OCCN3CC4CCCCC4C3)cc2)cn1)NCc1ccccc1` (centres undefined) gave an IC50 (K562) of 37.9 nM, an IC50 (SK-OV-3 [1]) of 74.9 nM and an IC50 (Ramos) of 19.7 nM.

With `O=C(Cc1ccc(-c2ccc(OCCN3CCN(C(=O)C4CC4(F)F)CC3)cc2)cn1)NCc1ccccc1` (centres undefined) the IC50 (K562) was 53.5 nM, the IC50 (SK-OV-3 [1]) was 16.8 nM and the IC50 (Ramos) was 48.1 nM.

`COC1CCN(CCOc2ccc(-c3ccc(CC(=O)NCc4ccccc4)nc3)cc2)CC1` gave an IC50 (K562) of 13 nM, an IC50 (SK-OV-3 [1]) of 8.1 nM and an IC50 (Ramos) of 15.8 nM.

For `CC(=O)N1CCN(CCOc2ccc(-c3ccc(CC(=O)NCc4ccccc4)nc3)cc2)CC1`, the IC50 (K562) was 14.4 nM, the IC50 (SK-OV-3 [1]) was 4 nM and the IC50 (Ramos) was 7.3 nM.

With `CC(C)(C)N1CCN(CCOc2ccc(-c3ccc(CC(=O)NCc4ccccc4)nc3)cc2)CC1` the IC50 (K562) was > 100 nM, the IC50 (SK-OV-3 [1]) was 119 nM and the IC50 (Ramos) was 43.3 nM.

In the case of `COc1cc2c(c(OC)c1OC)-c1ccc(OC)c(=O)cc1[C@@H](NC(C)=O)CC2`, the Activity (SK-OV-3 [2]) is reported as “inactive”.

`O=C(Cc1ccc(-c2ccc(OCCCCN3CC4CCC(C3)O4)cc2)cn1)NCc1ccccc1` gave an IC50 (K562) of 40.5 nM, an IC50 (SK-OV-3 [1]) of 21.8 nM and an IC50 (Ramos) of 17.3 nM.

Compound `O=C(Cc1ccc(-c2ccc(OCCN3CCN(C(=O)CC4CC4)CC3)cc2)cn1)NCc1ccccc1` has an inhibition in vivo at 10 mg/kg [3] of 70%, an IC50 (K562) of 1 nM and an IC50 (SK-OV-3 [1]) of 0.61 nM. For the same compound, the IC50 (Ramos) was 1.4 nM, the half-life [4] was 27.8 min and the CLH [5] was 49.8 mL·min/g. The Kd (Tubulin) was 610 nM, the AUC(0-t) at 24 h [6] was 1050 ng·h/mL and the half-life [7] was 231 min. It also gave a Tmax [8] of 19.8 min, a Cmax [9] of 398 ng/mL and a CL/F [10] of 80.2 mL/min/kg. For the same compound, the bioavailability [11] was 24.3%, the inhibition in vivo at 10 mg/kg [12] was 71% and the inhibition in vivo at 5 mg/kg [13] was 52%. For the same compound, the Activity [14] was “Non-Toxic”, the Activity [15] was “Non-Toxic” and the inhibition (Tubulin (Homo sapiens)) was “Active”. It also gave an Activity (SK-OV-3 [16]) of 45.93%, an Activity (SK-OV-3 [17]) of 32.11% and an Activity (SK-OV-3 [18]) of 21.96%. For the same compound, the Activity (SK-OV-3 [19]) was 39.12%, the Activity (SK-OV-3 [20]) was 39.47% and the Activity (SK-OV-3 [21]) was 21.42%. It also gave an Activity (SK-OV-3 [22]) of 12.1%, an Activity (SK-OV-3 [23]) of 72.04% and an Activity (SK-OV-3 [24]) of 15.86%. For the same compound, the Activity (SK-OV-3 [25]) was “Active”, the Activity (SK-OV-3 [26]) was “Active” and the inhibition [27] was “Dose-Dependent Effect”. For the same compound, the inhibition [28] was “Dose-Dependent Effect” and the Activity [29] was “Non-Toxic”.

`O=C(Cc1ccc(-c2ccc(OCCN3C[C@@H]4C[C@H]3CO4)cc2)cn1)NCc1ccccc1` gave an IC50 (K562) of 16.2 nM, an IC50 (SK-OV-3 [1]) of 19.5 nM and an IC50 (Ramos) of 25.8 nM.

Compound `O=C(Cc1ccc(-c2ccc(OCCN3CC4CCC(C3)O4)cc2)cn1)NCc1ccccc1` has an IC50 (K562) of 6.2 nM, an IC50 (SK-OV-3 [1]) of 3.2 nM and an IC50 (Ramos) of 3.1 nM.

`O=C(Cc1ccc(-c2ccc(OCCN3CCN(C(=O)C4CCC4)CC3)cc2)cn1)NCc1ccccc1` gave an IC50 (K562) of 2.3 nM, an IC50 (SK-OV-3 [1]) of 0.59 nM and an IC50 (Ramos) of 1.5 nM. The half-life [4] was 20.6 min, the CLH [5] was 67.4 mL·min/g and the Kd (Tubulin) was 630 nM. It also gave an AUC(0-t) at 24 h [6] of 383 ng·h/mL, a half-life [7] of 139 min and a Tmax [8] of 8.4 min. For the same compound, the Cmax [9] was 484 ng/mL, the CL/F [10] was 209 mL/min/kg and the bioavailability [11] was 13.3%. The inhibition in vivo at 10 mg/kg [12] was 32%, the inhibition [27] was “Dose-Dependent Effect” and the inhibition [28] was “Dose-Dependent Effect”. For the same compound, the Activity [29] was “Non-Toxic”.

For `O=C(Cc1ccc(-c2ccc(OCCCN3CCOCC3)cc2)cn1)NCc1ccccc1`, the IC50 (K562) was 50.9 nM, the IC50 (SK-OV-3 [1]) was 15.6 nM and the IC50 (Ramos) was 129 nM.

`O=C(Cc1ccc(-c2ccc(OCCCCN3C[C@@H]4C[C@H]3CO4)cc2)cn1)NCc1ccccc1` showed an IC50 (K562) of 53.2 nM, an IC50 (SK-OV-3 [1]) of 37 nM and an IC50 (Ramos) of 25 nM.
